We go through 17 compounds from patent US10961189B2, “Spiro-lactam NMDA receptor modulators and uses thereof” (Aptinyx Inc., priority 2016, dated 2021).

Data set [1] in a line: oral pharmacokinetics (plasma, brain, CSF). It is filed as in vivo, Sprague Dawley rats. Conditions: rat, per os 10 mg/kg; for bioavailability / Tmax / AUC(0-t) / Cmax: Sprague-Dawley, plasma, po; for Tmax: normal saline (* in 5% NMP, 5% Solutol HS, 90% normal saline), read-out: Tmax; for Cmax: read-out: Cmax.
Method: In another experiment, Sprague Dawley rats were dosed per os using a normal saline formulation containing 10 mg/kg of the compounds identified in the table below (except for the compounds marked with an asterisk (“*”) that were delivered in 5% NMP, 5% Solutol® HS and 90% normal saline formulation). Plasma, brain, and CSF samples were analyzed at various time points over a 24 hour period.
In another data set the target is T1, NMDAR2A (Homo sapiens, UniProt Q12879).
T1 construct: expressed in transfected cells; host or cells: HEK cells (membrane extract)
Kind of data set: [3H]MK-801 binding in NMDAR expressing HEK cell membranes (facilitation of NMDAR activation). The following applies: 50 μM glutamate; for EC50: read-out: B: log EC50 (converted); for Emax: 0.25 h, read-out: A: % maximal [3H]MK-801 binding relative to 1 mM glycine. Type of data set: biochemical. As for the experimental part:
(§1) Assays were conducted as described by Moskal et al., “GLYX-13: a monoclonal antibody-derived peptide that acts as an N-methyl-D-aspartate receptor modulator,” Neuropharmacology, 49, 1077-87, 2005. These studies were designed to determine if the test compounds act to facilitate NMDAR activation in NMDAR2A, NMDAR2B, NMDAR2C or NMDAR2D expressing HEK cell membranes as measured by increases in [^3H]MK-801 binding.
(§2) In the assay, 300 μg of NMDAR expressing HEK cell membrane extract protein was preincubated for 15 minutes at 25° C. in the presence of saturating concentrations of glutamate (50 μM) and varying concentrations of test compound (1×10^15M−1×10^−7M), or 1 mM glycine. Following the addition of 0.3 μCi of [^3H]MK-801 (22.5 Ci/mmol), reactions were again incubated for 15 minutes at 25° C. (nonequilibrium conditions). Bound and free [^3H]MK-801 were separated via rapid filtration using a Brandel apparatus.
(§3) In analyzing the data, the DPM (disintegrations per minute) of [^3H]MK-801 remaining on the filter were measured for each concentration of test compound or for 1 mM glycine. The DPM values for each concentration of a ligand (N=2) were averaged. The baseline value was determined from the best fit curve of the DPM values modeled using the GraphPad program and the log(agonist) vs. response (three parameters) algorithm was then subtracted from all points in the dataset. The % maximal [^3H]MK-801 binding was then calculated relative to that of 1 mM glycine: all baseline subtracted DPM values were divided by the average value for 1 mM glycine. The EC50 and % maximal activity were then obtained from the best fit curve of the % maximal [^3H]MK-801 binding data modelled using the GraphPad program and the log(agonist) vs. response (three parameters) algorithm.
(§4) The tables below summarize the results for the wild type NMDAR agonists NMDAR2A, NMDAR2B, NMDAR2C, and NMDAR2D, and whether the compound is not an agonist (−), is an agonist (+), or is a strong agonist (++), where column A is based on the % maximal [^3H]MK-801 binding relative to 1 mM glycine (−=0; <100%=+; and >100%=++); and column B is based on log EC50 values (0=−; ≥1×10^−9 M (e.g., −8)=+; and <1×10^−9 M (e.g., −10)=++).

Another data set has as its target T2, NMDAR2B (Homo sapiens, UniProt Q13224).
T2 construct: expressed in transfected cells; host or cells: HEK cells (membrane extract)
Described as above. Type of data set: biochemical. The following applies: 50 μM glutamate; for EC50: read-out: B: log EC50 (converted); for Emax: 0.25 h, read-out: A: % maximal [3H]MK-801 binding relative to 1 mM glycine. As for the experimental part:
as §1, §2, §3, §4

A further data set can be described thus: IV pharmacokinetics. It is filed as in vivo, Sprague Dawley rats. Conditions: rat, normal saline (* in 5% NMP, 5% Solutol HS, 90% normal saline); for AUC(0-t) / half-life / C0 / Vd: Sprague-Dawley, in vivo; for C0: read-out: C0; for Vd: read-out: Vss. From the text: The table below summarizes the results of the IV pharmacokinetics.

Where two headings read alike, the source gives them in different places.

T2 sequence (Q13224 27-1484, species assumed, other chains not shown): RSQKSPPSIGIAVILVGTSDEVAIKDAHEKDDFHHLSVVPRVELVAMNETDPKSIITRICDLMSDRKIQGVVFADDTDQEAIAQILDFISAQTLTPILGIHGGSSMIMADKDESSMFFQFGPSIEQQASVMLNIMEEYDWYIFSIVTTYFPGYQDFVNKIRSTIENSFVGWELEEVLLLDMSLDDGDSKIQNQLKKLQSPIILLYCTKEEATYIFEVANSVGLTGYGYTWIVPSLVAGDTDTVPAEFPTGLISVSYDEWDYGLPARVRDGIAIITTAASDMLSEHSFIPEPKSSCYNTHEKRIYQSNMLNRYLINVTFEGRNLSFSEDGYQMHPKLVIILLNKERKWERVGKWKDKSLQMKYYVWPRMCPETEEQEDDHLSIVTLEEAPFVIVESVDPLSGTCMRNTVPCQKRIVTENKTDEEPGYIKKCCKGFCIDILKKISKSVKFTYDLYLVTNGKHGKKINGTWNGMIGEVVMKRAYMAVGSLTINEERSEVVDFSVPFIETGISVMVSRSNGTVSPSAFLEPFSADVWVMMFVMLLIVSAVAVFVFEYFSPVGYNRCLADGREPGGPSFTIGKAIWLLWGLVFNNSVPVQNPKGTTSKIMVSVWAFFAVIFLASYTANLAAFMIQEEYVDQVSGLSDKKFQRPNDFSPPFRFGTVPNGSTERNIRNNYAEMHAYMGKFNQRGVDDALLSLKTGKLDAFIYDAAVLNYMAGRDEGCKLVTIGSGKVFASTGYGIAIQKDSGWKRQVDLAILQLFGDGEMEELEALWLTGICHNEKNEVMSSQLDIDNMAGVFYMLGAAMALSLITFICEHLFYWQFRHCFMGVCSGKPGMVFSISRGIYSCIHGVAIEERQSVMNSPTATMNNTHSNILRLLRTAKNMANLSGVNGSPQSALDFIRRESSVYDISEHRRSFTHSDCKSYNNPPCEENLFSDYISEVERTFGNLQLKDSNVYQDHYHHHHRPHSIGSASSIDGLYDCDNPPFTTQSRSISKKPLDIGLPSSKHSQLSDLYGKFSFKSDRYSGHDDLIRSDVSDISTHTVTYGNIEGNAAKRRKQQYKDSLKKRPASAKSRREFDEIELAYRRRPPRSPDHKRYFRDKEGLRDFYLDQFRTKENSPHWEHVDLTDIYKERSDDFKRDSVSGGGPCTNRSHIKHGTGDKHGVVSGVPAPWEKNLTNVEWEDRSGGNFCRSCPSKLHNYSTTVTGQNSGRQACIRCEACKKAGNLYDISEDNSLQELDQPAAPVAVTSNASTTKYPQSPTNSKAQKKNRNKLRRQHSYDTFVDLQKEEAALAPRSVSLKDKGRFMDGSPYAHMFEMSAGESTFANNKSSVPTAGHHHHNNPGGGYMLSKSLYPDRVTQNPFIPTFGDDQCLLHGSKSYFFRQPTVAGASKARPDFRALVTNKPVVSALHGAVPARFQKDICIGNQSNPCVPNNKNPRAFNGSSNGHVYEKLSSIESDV
T1 sequence (Q12879 23-1464, species assumed, other chains not shown): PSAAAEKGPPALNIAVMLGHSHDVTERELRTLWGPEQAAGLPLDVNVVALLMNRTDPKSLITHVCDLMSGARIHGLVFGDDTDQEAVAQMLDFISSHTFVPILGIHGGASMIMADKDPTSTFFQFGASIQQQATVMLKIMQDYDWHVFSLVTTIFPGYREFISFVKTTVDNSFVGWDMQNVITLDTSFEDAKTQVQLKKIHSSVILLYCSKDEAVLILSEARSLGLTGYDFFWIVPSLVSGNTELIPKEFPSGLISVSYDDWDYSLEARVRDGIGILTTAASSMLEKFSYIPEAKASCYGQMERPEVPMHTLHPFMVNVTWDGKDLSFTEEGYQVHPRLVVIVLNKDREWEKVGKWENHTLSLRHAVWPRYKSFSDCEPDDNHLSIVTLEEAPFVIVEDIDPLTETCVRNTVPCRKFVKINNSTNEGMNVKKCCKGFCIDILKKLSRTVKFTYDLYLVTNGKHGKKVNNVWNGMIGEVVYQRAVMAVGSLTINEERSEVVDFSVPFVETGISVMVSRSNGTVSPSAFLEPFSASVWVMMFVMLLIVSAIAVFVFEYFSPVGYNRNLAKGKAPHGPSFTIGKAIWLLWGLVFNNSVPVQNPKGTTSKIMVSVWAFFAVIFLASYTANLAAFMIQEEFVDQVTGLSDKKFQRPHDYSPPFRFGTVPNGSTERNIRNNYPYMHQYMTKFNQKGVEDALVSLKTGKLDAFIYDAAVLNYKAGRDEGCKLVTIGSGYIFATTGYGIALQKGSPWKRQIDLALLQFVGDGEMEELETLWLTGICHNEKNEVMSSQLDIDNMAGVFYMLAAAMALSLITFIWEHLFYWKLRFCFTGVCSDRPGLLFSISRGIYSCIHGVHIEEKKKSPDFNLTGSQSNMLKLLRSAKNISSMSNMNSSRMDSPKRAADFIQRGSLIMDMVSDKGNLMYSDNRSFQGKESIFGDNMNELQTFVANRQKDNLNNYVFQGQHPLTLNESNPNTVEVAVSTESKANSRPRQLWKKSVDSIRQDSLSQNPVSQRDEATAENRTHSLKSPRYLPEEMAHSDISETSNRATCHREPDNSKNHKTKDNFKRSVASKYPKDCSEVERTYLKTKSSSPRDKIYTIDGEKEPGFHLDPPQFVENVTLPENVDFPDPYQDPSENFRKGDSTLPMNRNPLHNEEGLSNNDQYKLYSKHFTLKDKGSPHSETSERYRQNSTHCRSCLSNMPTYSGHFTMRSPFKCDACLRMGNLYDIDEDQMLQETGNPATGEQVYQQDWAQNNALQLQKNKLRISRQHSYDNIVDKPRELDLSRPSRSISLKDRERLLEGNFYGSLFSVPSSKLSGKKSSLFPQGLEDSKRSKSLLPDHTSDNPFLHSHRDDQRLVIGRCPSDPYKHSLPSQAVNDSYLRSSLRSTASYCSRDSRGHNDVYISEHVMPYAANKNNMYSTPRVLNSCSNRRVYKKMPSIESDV

In the case of `CN(Cc1ccccc1)C1CCC2(CC1)CNC2=O` (stereo not drawn) [EY], in data set [1], the bioavailability was 48%, the time of peak concentration (Tmax) was found to be 30 min, the AUC(0-t) is 2920 ng·h/mL and the Cmax was determined as 1130 ng/mL. Moreover, in data set [1], the “CSF Cmax” value is recorded as 539.09 ng/mL and the “Brain Cmax” value was 1833.34 ng/mL. Further, the “A: % maximal [3H]MK-801 binding relative to 1 mM glycine” value on NMDAR2A is listed as “− (−=0)”. Besides, on NMDAR2B, the EC50 is < 1 nM and the Emax was < 100%. Besides, in the data set “IV pharmacokinetics” (intravenous 2 mg/kg), the AUC(0-t) worked out at 1210 ng·h/mL, the half-life is 33.6 min, the C0 came to 2100 ng/mL and the Vd came to 1.09 L/kg. This compound also came in with a CI in “IV pharmacokinetics” (intravenous 2 mg/kg) of 27.44 mL/min/kg.

In the case of `COc1ccc(CN2CC3(CCC(OCc4ccccc4)CC3)C2=O)cc1` (single isomer, unassigned) [AF, 7-(benzyloxy)-2-(4-methoxybenzyl)-2-azaspiro[3.5]nonan-1-one], on NMDAR2A, the “A: % maximal [3H]MK-801 binding relative to 1 mM glycine” value was “− (−=0)”. Further, at NMDAR2B, the “A: % maximal [3H]MK-801 binding relative to 1 mM glycine” value is “+ (<100%=+)” and the 50% effective concentration (EC50) is < 1 nM.

For the compound `CC1CCC2(CC1)CN(C(CO)C(=O)O)C2=O` (single isomer, unassigned) [EN, 3-hydroxy-2-(7-methyl-1-oxo-2-azaspiro[3.5]nonan-2-yl)propanoic acid], in data set [1] (10 mg/kg), the exposure AUC(0-t) is 2210 ng·h/mL, the bioavailability was found to be 25%, the Tmax was 15 min and the Cmax was determined as 1490 ng/mL. Also, in data set [1], the “CSF Cmax” value is recorded as 22 ng/mL and the “Brain Cmax” value is on record as 61 ng/mL. In addition, at NMDAR2A, the “A: % maximal [3H]MK-801 binding relative to 1 mM glycine” value is “+ (<100%=+)” and the EC50 was < 1 nM. In addition, on NMDAR2B, the “A: % maximal [3H]MK-801 binding relative to 1 mM glycine” value was “+ (<100%=+)” and the EC50 was < 1 nM. In “IV pharmacokinetics” (iv, 2 mg/kg), the AUC(0-t) turned out to be 1760 ng·h/mL, the half-life was 440 min, the C0 is 9440 ng/mL and the Vd was found to be 1.16 L/kg. In “IV pharmacokinetics” (intravenous 2 mg/kg), this compound registered a CI of 19.38 mL/min/kg.

Consider `CCN(Cc1ccccc1)C1CCC2(CC1)CNC2=O` (stereo not drawn) [FB], for which, in data set [1], the bioavailability amounted to 87%, the Tmax was 30 min, the AUC(0-t) was found to be 3410 ng·h/mL and the highest concentration (Cmax) was 1590 ng/mL. In addition, in data set [1], the “CSF Cmax” value was 981.8 ng/mL and the “Brain Cmax” value is reported as 3632.82 ng/mL. In addition, at NMDAR2A, the “A: % maximal [3H]MK-801 binding relative to 1 mM glycine” value is listed as “+ (<100%=+)” and the EC50 is < 1 nM. Also, at NMDAR2B, the “A: % maximal [3H]MK-801 binding relative to 1 mM glycine” value is “+ (<100%=+)” and the EC50 is < 1 nM. In “IV pharmacokinetics” (intravenous 2 mg/kg), the AUC(0-t) turned out to be 782 ng·h/mL, the half-life was 45 min, the C0 came out at 981 ng/mL and the Vd turned out to be 2.33 L/kg. In addition, the CI in the data set “IV pharmacokinetics” (intravenous 2 mg/kg) stood at 41.98 mL/min/kg.

On to `COc1ccc(CN2CC3(CCC(C)CC3)C2=O)cc1` (stereo not drawn) [Compound AC, 2-(4-methoxybenzyl)-7-methyl-2-azaspiro[3.5]nonan-1-one], for which the Emax on NMDAR2A and at NMDAR2B was 0% in each case.

Consider `O=C1NCC12CCC(O)CC2` (stereo not drawn) [AK, 7-hydroxy-2-azaspiro[3.5]nonan-1-one], for which the Emax at NMDAR2A was 0%. On NMDAR2B, the “A: % maximal [3H]MK-801 binding relative to 1 mM glycine” value is recorded as “− (−=0)”.

Consider `O=C1NCC12CCC(NCc1ccccc1)CC2` (stereo not drawn) [EX], for which, in data set [1], the bioavailability came out at 100%, the time of peak concentration (Tmax) came out at 120 min, the AUC(0-t) is 7380 ng·h/mL and the Cmax turned out to be 3190 ng/mL. In addition, in data set [1], the “CSF Cmax” value amounted to 459.46 ng/mL and the “Brain Cmax” value was 2799.98 ng/mL. Moreover, at NMDAR2A, the EC50 is < 1 nM and the Emax is < 100%. For the same compound, on NMDAR2B, the EC50 was < 1 nM and the Emax was > 100%. Moreover, in “IV pharmacokinetics” (intravenous 2 mg/kg), the AUC(0-t) was determined as 659 ng·h/mL, the half-life is 70.8 min, the C0 is 1340 ng/mL and the Vd stood at 2.71 L/kg. Moreover, the CI in the data set “IV pharmacokinetics” (intravenous 2 mg/kg) is recorded as 50.52 mL/min/kg.

`CC1CCC2(CC1)CN([C@@H](CCC(=O)O)C(=O)O)C2=O` (stereo partly drawn) [EQ, (S)-2-(7-methyl-1-oxo-2-azaspiro[3.5]nonan-2-yl)pentanedioic acid]: at NMDAR2A, the EC50 was < 1 nM and the Emax is < 100%. Moreover, the Emax on NMDAR2B turned out to be 0%.

Consider `O=C1NCC12CCC(OCc1ccccc1)CC2` (stereo not drawn) [AJ, 7-(benzyloxy)-2-azaspiro[3.5]nonan-1-one], for which the Emax on NMDAR2A and at NMDAR2B was 0% each time.

For `C[C@@H](O)[C@@H](C(N)=O)N1CC2(CCC(O)CC2)C1=O` (stereo partly drawn) [Compound AM, (2S,3R)-3-hydroxy-2-(7-hydroxy-1-oxo-2-azaspiro[3.5]nonan-2-yl)butanamide], the Emax at NMDAR2A and at NMDAR2B was 0% each time.

Consider `CC1CCC2(CC1)CN(C(CO)C(=O)O)C2=O` (single isomer, unassigned) [EM, 3-hydroxy-2-(7-methyl-1-oxo-2-azaspiro[3.5]nonan-2-yl)propanoic acid], for which, on NMDAR2A, the EC50 was < 1 nM and the Emax was < 100%. Moreover, the “A: % maximal [3H]MK-801 binding relative to 1 mM glycine” value at NMDAR2B is “− (−=0)”.

For `CC1CCC2(CC1)CN(C(CCC(N)=O)C(N)=O)C2=O` (single isomer, unassigned) [BE, 2-(7-methyl-1-oxo-2-azaspiro[3.5]nonan-2-yl)pentanediamide], on NMDAR2A, the “A: % maximal [3H]MK-801 binding relative to 1 mM glycine” value is reported as “− (−=0)”. Besides, on NMDAR2B, the EC50 is < 1 nM and the Emax was < 100%.

With `COc1ccc(CN2CC3(CCC(OCc4ccccc4)CC3)C2=O)cc1` (single isomer, unassigned) [AE, 7-(benzyloxy)-2-(4-methoxybenzyl)-2-azaspiro[3.5]nonan-1-one], on NMDAR2A, the “A: % maximal [3H]MK-801 binding relative to 1 mM glycine” value is recorded as “+ (<100%=+)” and the concentration giving a half-maximal response (EC50) is < 1 nM. Moreover, on NMDAR2B, the “A: % maximal [3H]MK-801 binding relative to 1 mM glycine” value is on record as “− (−=0)”.

As to `CCN(Cc1ccccc1)C1CCC2(CC1)CNC2=O` (stereo not drawn) [FA], the “A: % maximal [3H]MK-801 binding relative to 1 mM glycine” value at NMDAR2A and on NMDAR2B was “− (−=0)” each time.

Take `O=C1N(OCc2ccccc2)CC12CCC(O)CC2` (stereo not drawn) [FF]: the “A: % maximal [3H]MK-801 binding relative to 1 mM glycine” value on NMDAR2A and at NMDAR2B was “− (−=0)” in each case.

With `O=C1N(OCc2ccccc2)CC12CCC(O)CC2` (stereo not drawn) [FE], at NMDAR2A, the “A: % maximal [3H]MK-801 binding relative to 1 mM glycine” value is “+ (<100%=+)” and the EC50 was < 1 nM. For the same compound, the Emax at NMDAR2B was found to be 0%.

For the compound `CN(Cc1ccccc1)C1CCC2(CC1)CNC2=O` (stereo not drawn) [EZ], on NMDAR2A, the “A: % maximal [3H]MK-801 binding relative to 1 mM glycine” value was “+ (<100%=+)” and the EC50 was < 1 nM. Further, on NMDAR2B, the “A: % maximal [3H]MK-801 binding relative to 1 mM glycine” value is “+ (<100%=+)” and the half-maximal effective concentration (EC50) is < 1 nM.

The term bioavailability denotes dose-corrected exposure relative to a reference, in per cent. A lower bioavailability goes with poor availability. As usually defined, the Tmax is the time at which the peak concentration occurs. In general, AUC(0-t) refers to exposure summed from dosing to a finite time, without extrapolation to infinity. Low values mean low exposure, high ones high exposure. In general, Cmax refers to the peak of the concentration-time curve. The EC50 is the concentration needed to bring the measured effect to its halfway point. As a reminder, the half-life is the time needed for the level to fall by half in the phase considered.
